Data taken from US9040479B2, “HCV NS3 protease inhibitors” (RFS Pharma, LLC, priority 2012, dated 2015).
Where “and” joins values, the source holds several entries; their conditions need not be identical. Equal entries are not always repeated.

How the values were obtained:
[1] = Cytotoxicity assay in PBM cells; assay type: cell-based; settings: human, figure in parentheses not defined
Protocol: (§1) The toxicity of the compounds was assessed in Vero, human PBM, CEM (human lymphoblastoid), MT-2, and HepG2 cells, as described previously (see Schinazi R. F., Sommadossi J.-P., Saalmann V., Cannon D. L., Xie M.-Y., Hart G. C., Smith G. A. & Hahn E. F. Antimicrob. Agents Chemother. 1990, 34, 1061-67). Cycloheximide was included as positive cytotoxic control, and untreated cells exposed to solvent were included as negative controls. The cytotoxicity IC50 was obtained from the concentration-response curve using the median effective method described previously (see Chou T.-C. & Talalay P. Adv. Enzyme Regul. 1984, 22, 27-55; Belen'kii M. S. & Schinazi R. F. Antiviral Res. 1994, 25, 1-11).

[2] = Cytotoxicity assay in CEM cells; assay type: cell-based; settings: human, CEM (human lymphoblastoid) cells
Protocol: as §1

[3] = Cytotoxicity assay in Vero cells; assay type: cell-based; settings: African green monkey, figure in parentheses not defined
Protocol: as §1

[4] = system: HCV replicon RNA in Huh 7 Clone B cells; test: HCV replicon assay (replicon RNA by real time RT-PCR); assay type: cell-based; settings: for HCV Ct: single replicates
Protocol: (§2) Following five days incubation (37° C., 5% CO2), total cellular RNA was isolated by using versaGene RNA purification kit from Gentra. Replicon RNA and an internal control (TaqMan rRNA control reagents, Applied Biosystems) were amplified in a single step multiplex Real Time RT-PCR Assay. The antiviral effectiveness of the compounds was calculated by subtracting the threshold RT-PCR cycle of the test compound from the threshold RT-PCR cycle of the no-drug control (ΔCt HCV). A ΔCt of 3.3 equals a 1-log reduction (equal to 90% less starting material) in Replicon RNA levels. The cytotoxicity of the compounds was also calculated by using the ΔCt rRNA values. (2′-Me-C) was used as the control. To determine EC90 and IC50 values^2, ΔCt: values were first converted into fraction of starting material^3 and then were used to calculate the % inhibition. […]

[5] = HCV replicon assay, cytotoxicity from rRNA Ct values; assay type: cell-based; settings: human, Huh 7 Clone B cells containing HCV replicon RNA; from rRNA, Huh 7 Clone B cells
Protocol: as §2

[6] = system: Huh 7 Clone B cells (rRNA); test: as above; assay type: cell-based; settings: for rRNA Ct: single replicates
Protocol: as §2

[7] = system: HepG2 cells; settings: HepG2 cells incubated with 10 μM; cited from earlier work
[8] = Hepatitis C virus, Huh-7, 120 h, HCV replicon, five days incubation

C=C[C@@H]1C[C@]1(NC(=O)[C@@H]1C[C@@H](OC(=O)N2Cc3cccc(F)c3C2)CN1C(=O)[C@@H](NC(=O)C(C)(C)C(F)(F)F)C(C)(C)C)C(=O)NS(=O)(=O)C1CC1 [drawing 11]
IC50 [1]: > 100 µM | IC50 [2]: 85.1 µM | IC50 [3]: ≥ 100 µM

C=C[C@@H]1C[C@]1(NC(=O)[C@@H]1C[C@@H](OC(=O)N2Cc3cccc(F)c3C2)CN1C(=O)[C@@H](NC(=O)C(C)(C)C(F)(F)F)C(C)(C)C)C(=O)NS(=O)(=O)C1CC1 [drawing 12]
% Inhit (HCV) ([4]; 3 nM): −33.8% | DCt HCV ([4]; 3 nM): −0.4 | HCV Ct Average ([4]; 3 nM): 22.8 | HCV Ct ([4]; 3 nM): 22.6 (2×) and 23.2 | % Inhit (HCV) ([4]; 10 nM): 91.7% | DCt HCV ([4]; 10 nM): 3.6 | HCV Ct Average ([4]; 10 nM): 26.8 | HCV Ct ([4]; 10 nM): 27.0 and 26.9 and 26.6 | % Inhit (HCV) ([4]; 33 nM): 98.0% | DCt HCV ([4]; 33 nM): 5.7 | HCV Ct Average ([4]; 33 nM): 28.9 | HCV Ct ([4]; 33 nM): 29.2 and 29.1 and 28.4 | % Inhit (HCV) ([4]; 100 nM): 99.4% | DCt HCV ([4]; 100 nM): 7.3 | HCV Ct Average ([4]; 100 nM): 30.5 | HCV Ct ([4]; 100 nM): 30.3 and 30.5 and 30.8 | EC50 [4, 8]: 7.7 nM | EC90 [4, 8]: 9.9 nM | CC50 at 5 days [5]: > 100 nM | DCt rRNA ([6]; 3 nM): −0.8 | rRNA Ct Average ([6]; 3 nM): 19.2 | rRNA Ct ([6]; 3 nM): 19.2 and 19.3 and 18.9 | DCt rRNA ([6]; 10 nM): −0.9 | rRNA Ct Average ([6]; 10 nM): 19.0 | rRNA Ct ([6]; 10 nM): 19.2 and 18.9 and 19.0 | DCt rRNA ([6]; 33 nM): −0.8 | rRNA Ct Average ([6]; 33 nM): 19.1 | rRNA Ct ([6]; 33 nM): 19.2 (2×) and 19.1 | DCt rRNA ([6]; 100 nM): −1.0 | rRNA Ct Average ([6]; 100 nM): 19.0 | rRNA Ct ([6]; 100 nM): 19.0 and 18.8 and 19.2 | inhibition at 0.003 µM ([6]; Homo sapiens, Huh-7, 3 nM, read-out: % inhib. rRNA): -74.8% | inhibition at 0.01 µM ([6]; Homo sapiens, Huh-7, 10 nM, read-out: % inhib. rRNA): -89.1% | inhibition at 0.033 µM ([6]; Homo sapiens, Huh-7, 33 nM, read-out: % inhib. rRNA): -75.6% | inhibition at 0.1 µM ([6]; Homo sapiens, Huh-7, 100 nM, read-out: % inhib. rRNA): -95.2%

O=c1[nH]c(=O)n([C@@H]2O[C@H](CO)[C@@H](O)[C@@H]2F)cc1I [fialuridine, 1,2′-deoxy-2′-fluoro-1-D-arabinofuranosly-5-iodo-uracil]
morphological changes in mitochondria (electron micrographs) [7]: enlarged mitochondria with morphological changes consistent with mitochondrial dysfunction
